Measurements published in the supplement of paper PMC4862054.

Experiments:
Conditions in all cases: incubation time: 72 h
[1] = system: HDQ-P1; assay: normalised response (% of control), CellTiter-Glo; higher = more viable cells (100 = DMSO, 0 = benzethonium chloride kill control)
In short: (§1)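 Breast cancer cell lines, seeded at 20 µl suspension per well, were incubated for 72 h in 384-well plates containing compound at 5 concentrations. These concentrations rose in 10-fold steps over a 10,000-fold range set for each compound. CellTox Green fluorescence (485/520 nm) was read, then CellTiter-Glo luminescence after 10 min at room temperature, and each plate was normalised to 0.1 % DMSO (100) and a positive kill control (0). Values are normalised signals, each at one concentration.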

[2] = system: CAL-51; assay: as above
In short: as §1

[3] = system: CAL-85-1; assay: as above
In short: as §1

[4] = system: CAL-120; assay: as above
In short: as §1

[5] = system: CAL-148; assay: as above
In short: as §1

[6] = system: MDA-MB-436; assay: as above
In short: as §1

[7] = system: HCC1599; assay: as above
In short: as §1

[8] = system: MDA-MB-453; assay: as above
In short: as §1

[9] = system: HCC1143; assay: as above
In short: as §1

[10] = system: SK-BR-3; assay: as above
In short: as §1

[11] = system: MDA-MB-468; assay: as above
In short: as §1

[12] = system: MDA-MB-231; assay: as above
In short: as §1

[13] = system: Hs578T; assay: as above
In short: as §1

[14] = system: BT-549; assay: as above
In short: as §1

[15] = system: MCF-10A; assay: as above
In short: as §1

[16] = system: HCC1937; assay: as above
In short: as §1

[17] = system: DU-4475; assay: as above
In short: as §1

[18] = system: BT-474; assay: as above
In short: as §1

[19] = system: MFM-223; assay: as above
In short: as §1

[20] = system: HDQ-P1; assay: normalised response (% of control), CellTox Green; higher = less cell death (100 = DMSO, 0 = benzethonium chloride kill control)
In short: as §1

[21] = system: CAL-51; assay: as above
In short: as §1

[22] = system: CAL-85-1; assay: as above
In short: as §1

[23] = system: CAL-120; assay: as above
In short: as §1

[24] = system: CAL-148; assay: as above
In short: as §1

[25] = system: HCC1599; assay: as above
In short: as §1

[26] = system: MDA-MB-453; assay: as above
In short: as §1

[27] = system: MDA-MB-468; assay: as above
In short: as §1

[28] = system: MDA-MB-231; assay: as above
In short: as §1

[29] = system: BT-549; assay: as above
In short: as §1

[30] = system: MCF-10A; assay: as above
In short: as §1

[31] = system: HCC1937; assay: as above
In short: as §1

[32] = system: DU-4475; assay: as above
In short: as §1

[33] = system: BT-474; assay: as above
In short: as §1

[34] = system: MFM-223; assay: as above
In short: as §1

[35] = system: MDA-MB-436; assay: as above
In short: as §1

[36] = system: HCC1143; assay: as above
In short: as §1

[37] = system: Hs578T; assay: as above
In short: as §1

Row | SMILES | normalised response [1] | normalised response [2] | normalised response [3] | normalised response [4] | normalised response [5] | normalised response [6] | normalised response [7] | normalised response [8] | normalised response [9] | normalised response [10] | normalised response [11] | normalised response [12] | normalised response [13] | normalised response [14] | normalised response [15] | normalised response [16] | normalised response [17] | normalised response [18] | normalised response [19] | normalised response [20] | normalised response [21] | normalised response [22] | normalised response [23] | normalised response [24] | normalised response [25] | normalised response [26] | normalised response [27] | normalised response [28] | normalised response [29] | normalised response [30] | normalised response [31] | normalised response [32] | normalised response [33] | normalised response [34] | normalised response [35] | normalised response [36] | normalised response [37]
1 | c1cc(CN2CCCNCCNCCCNCC2)ccc1CN1CCCNCCNCCCNCC1 [Plerixafor] (1000 nM) | 101% | 111% | 96.1% | 111% | 90.4% | 102% | 102% | 80.1% | 97.3% | 80% | 98.1% | 96.9% | 91.4% | 105% | 81.8% | 101% | 92.1% | 93.7% | 87.3% | 58.5% | 89.1% | 105% | 96.6% | 92.3% | 88.8% | 99% | 85% | 82.7% | 107% | 86.6% | 54.1% | 91.8% | 95.2% | 97.4% |  |  | 
2 | CC(C)N(CCCNC(=O)Nc1ccc(C(C)(C)C)cc1)C[C@H]1O[C@@H](n2cc(Br)c3c(N)ncnc32)[C@H](O)[C@@H]1O [SGC0946] (1000 nM) | 102% | 118% | 102% | 100% | 91.3% | 93.4% | 102% | 104% | 96.5% | 95.7% | 86.5% | 92.1% | 103% | 95.5% | 97.9% | 97.3% | 98.4% | 103% | 94% | 103% | 100% | 96.3% | 95.7% |  | 91.8% | 105% | 111% | 101% | 99.9% | 107% | 93.1% | 95.8% | 97.3% | 98.4% | 97.8% |  | 
3 | Cn1cc(CNCC2CCN(c3ncc(C(=O)NO)cn3)CC2)c2ccccc21 [Quisinostat] (100 nM) | 58.4% | 40.5% | 29.5% | 44.5% | 8.89% | 55.3% | 42.1% | 2.02% | 25.4% | 14.9% | 34.5% | 30% | 37.2% | 46.1% | 51.6% | 64.7% | 23.2% | 25.3% | 52.5% | -19.4% | 58.5% | -5.42% | 34.5% | 23.7% | 86.8% | 89% | 43.3% | 29.6% | 92.3% | 97.8% | 80% | 82.1% | 45.6% | 72.8% | 87.5% | 86.2% | 38.8%
4 | Cc1c(Cn2c(C)nc3c(C(=O)O)cc(N4CCOCC4)cc32)cccc1C(F)(F)F (1000 nM) | 105% | 74.1% | 98.1% | 99.8% | 101% | 99.5% | 117% | 93.1% | 103% | 106% | 80.9% | 100% | 103% | 75.5% | 115% | 94.4% | 95.1% | 96.2% | 104% | 115% | 100% | 104% | 109% | 107% | 92.3% | 112% | 125% | 107% | 111% | 110% | 106% | 111% | 102% | 105% | 107% | 119% | 105%
5 | CCCCC/C=C/C=C1/C(=O)C=C[C@@H]1C/C=C\CCCC(=O)O [15D-PGJ2] (80 nM) | 99.9% | 123% | 96.2% | 103% | 102% | 98.5% | 88.8% | 96.8% | 104% | 103% | 99.2% | 101% | 107% | 99.1% | 111% | 99.1% | 102% | 101% | 99.9% | 111% | 113% | 125% | 108% | 103% | 109% | 113% | 155% | 86.6% | 105% | 104% | 123% | 110% | 98.9% | 101% | 116% | 82.5% | 
6 | O=C(NC[C@H](O)CO)c1ccncc1Nc1ccc(I)cc1F [Pimasertib] (1000 nM) | 62.1% | 73% | 61.9% | 73.6% | 83.5% | 95.5% | 91.6% | 105% | 84.2% | 86.1% | 87.4% | 72.1% | 86.2% | 96.1% | 31.2% | 84.3% | 0.43% | 69.8% | 94% | 77.2% | 93.7% | 67.4% | 83.4% | 105% | 111% | 107% | 150% | 63.2% | 142% | 106% | 109% | 62.6% | 78.8% | 100% | 56.7% | 89.5% | 103%
7 | CC/C(=C(\c1ccc(O)cc1)c1ccc(OCCN(C)C)cc1)c1ccccc1 [4-hydroxytamoxifen] (1000 nM) | 98.8% | 102% | 97.2% | 92.5% | 102% | 101% | 105% | 102% | 98.9% | 99.2% | 91.6% | 97% | 107% | 93.6% | 98.8% | 93.9% | 98.5% | 101% | 95.6% | 97.3% | 108% | 120% | 108% | 57.6% | 95.8% | 111% | 128% | 108% | 114% | 103% | 86.6% | 105% | 97.7% | 95.9% | 93.6% | 88.3% | 97.2%
8 | Cc1cccc(-c2nn3c(c2-c2ccnc4ccc(C(N)=O)cc24)CCC3)n1 [Galunisertib] (100 nM) | 101% | 88.5% | 104% | 104% | 101% | 110% | 109% | 105% | 109% | 105% | 107% | 108% | 91.6% | 94.3% | 109% | 104% | 104% | 104% | 107% | 70.6% | 112% | 102% | 101% | 108% | 109% | 114% | 170% | 120% | 121% | 59.8% | 93.8% | 107% | 102% | 98.5% | 105% | 112% | 87.6%
9 | CS(=O)(=O)N1CCN(Cc2cc3nc(-c4cccc5[nH]ncc45)nc(N4CCOCC4)c3s2)CC1 [Pictilisib] (1000 nM) | 47.1% | 57.4% | 63.5% | 64.9% | 66.3% | 72.7% | 96.1% | 38.6% | 68% | 40.4% | 72.9% | 70.5% | 64.3% | 58.7% | 38.4% | 73.9% | 86.5% | 69.4% | 66.5% | 87.1% | 92.7% |  | 100% | 53.4% | 103% | 96.7% | 45.4% | 99.3% | 125% | 44.2% | 126% | 98.3% | 97.5% | 76.8% | 99.6% | 62.9% | 108%
